Results published in patent publication US5244905A, “N-substituted cycloalkyl and polycycloalkyl polyhydro-β-carboline-phenylalanine- and phenethylamine derivatives” (Warner-Lambert Company, priority 1991, dated 1993).

Test system: nucleus accumbens
Experiment: Locomotor activity after intra-accumbens amphetamine
Assay type: in vivo, rat (male Sprague Dawley (CD) Bradford)
Settings: bilateral injection 20 μg into nucleus accumbens
Method: The compounds of the instant invention are useful as antipsychotic agents. Compounds are tested for their ability to reduce the effects of intra-accumbens amphetamine in the rat as described hereinafter.
Male Sprague Dawley (CD) Bradford strain rats are used. The rats are housed in groups of five at a temperature of 21°±2° C. on a 12 hour light-dark cycle of lights-on between 07 hours 00 minutes and 20 hours 00 minutes. Rats are fed CRM diet (Labsure) and allowed water ad libitum.
Rats are anesthetized with chloral hydrate (400 mg/kg SC) and placed in a Kopf stereotaxic frame. Chronically indwelling guide cannulae (constructedof stainless steel tubing 0.65 mm diameter held bilaterally in Parspex holders) are implanted using standard stereotaxic techniques to terminate 3.5 mm above the center of the nucleus accumbens (Ant. 0.4, Vert. 0.0, Lat. 1.6) or 5.0 mm above the central nucleus of the amygdala (Ant. 5.8, Vet. -1.8, Lat. ±4.5) (Atlas of De Groot, 1959). […]
Behavioral experiments are conducted between 07 hours 30 minutes and 21 hours 30 minutes in a quiet room maintained at 22°±2° C. […] Interruptions of the light beam are recorded every 5 minutes. […]
The abilities of the compounds of the invention to inhibit the hyperactivity caused by the injection of amphetamine into the nucleus accumbens of the rat is measured.

## CC(N)Cc1ccccc1 (stereo not shown) [amphetamine]
  locomotor activity: increase in locomotor activity
